ChEMBL document CHEMBL1201862, “PubChem BioAssay data set” (2004)
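Exposure lasted 48 hours, with cells grown in 96-well plates and compounds tested at five concentrations. The concentration for 50% growth inhibition is given as GI50.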 Calls of active or inactive are those of the source. No stated cut-off is given here; in the data, active = GI50 up to about 1.1 µM and inactive = higher.

Tests used:
Experiment in all cases: growth of human tumour cells (NCI), 48 h
[1] = system: HCT-116
[2] = system: CCRF-CEM
[3] = system: SF-539
[4] = system: SK-MEL-5
[5] = system: SR
[6] = system: SF-268
[7] = system: Hs-578T
[8] = system: COLO 205
[9] = system: RXF 393
[10] = system: BT-549
[11] = system: LOX IMVI
[12] = system: HCT-15
[13] = system: MDA-N
[14] = system: SK-MEL-28
[15] = system: DU-145
[16] = system: A498
[17] = system: NCI-H226
[18] = system: MDA-MB-231
[19] = system: HCC 2998
[20] = system: HOP-62
[21] = system: SF-295
[22] = system: A549
[23] = system: HOP-92
[24] = system: KM12
[25] = system: OVCAR-8
[26] = system: K562
[27] = system: RPMI-8226
[28] = system: SK-MEL-2
[29] = system: U-251
[30] = system: PC-3
[31] = system: UACC-62
[32] = system: MCF7
[33] = system: NCI-H522
[34] = system: SW-620
[35] = system: Malme-3M
[36] = system: MOLT-4
[37] = system: OVCAR-5
[38] = system: HT-29
[39] = system: TK-10
[40] = system: MDA-MB-435
[41] = system: OVCAR-3
[42] = system: SNB-19
[43] = system: NCI-H23
[44] = system: 786-0
[45] = system: UACC-257
[46] = system: IGROV-1
[47] = system: EKVX
[48] = system: SNB-75
[49] = system: UO-31
[50] = system: M14
[51] = system: CAKI-1
[52] = system: SN12C
[53] = system: ACHN
[54] = system: NCI/ADR-RES
[55] = system: OVCAR-4
[56] = system: T47D
[57] = system: NCI-H460
[58] = system: SK-OV-3
[59] = system: HL-60

## Cc1cc(-c2nc3ccc(F)cc3s2)ccc1N
[1]
  GI50: > 100 µM (inactive)
[2]
  GI50: 9.46 µM (inactive)
[3]
  GI50: 43.5 µM (inactive)
[4]
  GI50: 41.4 µM (inactive)
[5]
  GI50: > 100 µM (inactive)
[6]
  GI50: > 100 µM (inactive)
[7]
  GI50: 37.2 µM (inactive)
[8]
  GI50: > 100 µM (inactive)
[9]
  GI50: 49.8 µM (inactive)
[10]
  GI50: > 100 µM (inactive)
[11]
  GI50: > 100 µM (inactive)
[12]
  GI50: > 100 µM
[13]
  GI50: > 100 µM (inactive)
[14]
  GI50: > 100 µM (inactive)
[15]
  GI50: > 100 µM (inactive)
[16]
  GI50: 2.55 µM (inactive)
[17]
  GI50: 59.8 µM (inactive)
[18]
  GI50: > 100 µM (inactive)
[19]
  GI50: 38.9 µM (inactive)
[20]
  GI50: > 100 µM (inactive)
[21]
  GI50: > 100 µM (inactive)
[22]
  GI50: 42.5 µM (inactive)
[23]
  GI50: > 100 µM (inactive)
[24]
  GI50: > 100 µM (inactive)
[25]
  GI50: > 100 µM (inactive)
[26]
  GI50: > 100 µM (inactive)
[27]
  GI50: 5.6 µM (inactive)
[28]
  GI50: > 100 µM (inactive)
[29]
  GI50: > 100 µM (inactive)
[30]
  GI50: 63.5 µM (inactive)
[31]
  GI50: 89.1 µM (inactive)
[32]
  GI50: < 0.01 µM (active)
[33]
  GI50: 21.5 µM (inactive)
[34]
  GI50: > 100 µM (inactive)
[35]
  GI50: > 100 µM (inactive)
[36]
  GI50: > 100 µM (inactive)
[37]
  GI50: > 100 µM (inactive)
[38]
  GI50: > 100 µM (inactive)
[39]
  GI50: < 0.01 µM (active)
[40]
  GI50: > 100 µM (inactive)
[41]
  GI50: > 100 µM (inactive)
[42]
  GI50: > 100 µM (inactive)
[43]
  GI50: > 100 µM (inactive)
[44]
  GI50: > 100 µM (inactive)
[45]
  GI50: > 100 µM (inactive)
[46]
  GI50: 1.28 µM (inactive)
[47]
  GI50: 56.5 µM (inactive)
[48]
  GI50: > 100 µM (inactive)
[49]
  GI50: > 100 µM (inactive)
[50]
  GI50: > 100 µM (inactive)
[51]
  GI50: > 100 µM (inactive)
[52]
  GI50: > 100 µM (inactive)
[53]
  GI50: 68.2 µM (inactive)
[54]
  GI50: > 100 µM (inactive)

## CC(C)(C)[Si](C)(C)OCc1cccc(OCCOc2cccc(CO[Si](C)(C)C(C)(C)C)c2[N+](=O)[O-])c1[N+](=O)[O-]
[1]
  GI50: > 100 µM (inactive)
[2]
  GI50: > 100 µM (inactive)
[3]
  GI50: > 100 µM (inactive)
[4]
  GI50: > 100 µM (inactive)
[5]
  GI50: 66.2 µM (inactive)
[6]
  GI50: > 100 µM (inactive)
[7]
  GI50: > 100 µM (inactive)
[8]
  GI50: > 100 µM (inactive)
[9]
  GI50: > 100 µM (inactive)
[10]
  GI50: > 100 µM (inactive)
[11]
  GI50: > 100 µM (inactive)
[12]
  GI50: > 100 µM
[13]
  GI50: > 100 µM (inactive)
[55]
  GI50: > 100 µM (inactive)
[14]
  GI50: > 100 µM (inactive)
[15]
  GI50: > 100 µM (inactive)
[16]
  GI50: > 100 µM (inactive)
[17]
  GI50: > 100 µM (inactive)
[20]
  GI50: > 100 µM (inactive)
[21]
  GI50: > 100 µM (inactive)
[56]
  GI50: > 100 µM (inactive)
[22]
  GI50: > 100 µM (inactive)
[23]
  GI50: > 100 µM (inactive)
[24]
  GI50: > 100 µM (inactive)
[25]
  GI50: > 100 µM (inactive)
[28]
  GI50: > 100 µM (inactive)
[29]
  GI50: > 100 µM (inactive)
[30]
  GI50: > 100 µM (inactive)
[31]
  GI50: > 100 µM (inactive)
[32]
  GI50: > 100 µM (inactive)
[57]
  GI50: > 100 µM (inactive)
[33]
  GI50: > 100 µM (inactive)
[34]
  GI50: > 100 µM (inactive)
[35]
  GI50: > 100 µM (inactive)
[36]
  GI50: > 100 µM (inactive)
[37]
  GI50: > 100 µM (inactive)
[38]
  GI50: > 100 µM (inactive)
[58]
  GI50: > 100 µM (inactive)
[39]
  GI50: > 100 µM (inactive)
[59]
  GI50: > 100 µM (inactive)
[40]
  GI50: > 100 µM (inactive)
[41]
  GI50: > 100 µM (inactive)
[42]
  GI50: > 100 µM (inactive)
[43]
  GI50: > 100 µM (inactive)
[44]
  GI50: > 100 µM (inactive)
[45]
  GI50: > 100 µM (inactive)
[46]
  GI50: > 100 µM (inactive)
[47]
  GI50: > 100 µM (inactive)
[48]
  GI50: > 100 µM (inactive)
[49]
  GI50: > 100 µM (inactive)
[50]
  GI50: > 100 µM (inactive)
[51]
  GI50: > 100 µM (inactive)
[52]
  GI50: > 100 µM (inactive)
[53]
  GI50: > 100 µM (inactive)
[54]
  GI50: > 100 µM (inactive)

## C=C(Br)C(Br)(CCl)CCC(Cl)C(C)C.C=C(Cl)C(Br)(CCl)CCC(Cl)C(C)C (stereo not drawn)
[1]
  GI50: 1.75 µM (inactive)
[2]
  GI50: 0.254 µM (active)
[3]
  GI50: 1.94 µM (inactive)
[4]
  GI50: 1.82 µM (inactive)
[5]
  GI50: 0.442 µM (active)
[6]
  GI50: 1.75 µM (inactive)
[7]
  GI50: 2.49 µM (inactive)
[8]
  GI50: 2.13 µM (inactive)
[9]
  GI50: 2.18 µM (inactive)
[10]
  GI50: 1.7 µM (inactive)
[11]
  GI50: 0.299 µM (active)
[13]
  GI50: 1.71 µM (inactive)
[55]
  GI50: 1.94 µM (inactive)
[14]
  GI50: 1.77 µM (inactive)
[15]
  GI50: 1.65 µM (inactive)
[16]
  GI50: 17.7 µM (inactive)
[17]
  GI50: 3.69 µM (inactive)
[18]
  GI50: 1.24 µM (inactive)
[19]
  GI50: 3.01 µM (inactive)
[20]
  GI50: 2.21 µM (inactive)
[21]
  GI50: 6.92 µM (inactive)
[22]
  GI50: 14.8 µM (inactive)
[23]
  GI50: 1.87 µM (inactive)
[24]
  GI50: 1.83 µM (inactive)
[26]
  GI50: 0.684 µM (active)
[27]
  GI50: 0.208 µM (active)
[28]
  GI50: 1.47 µM (inactive)
[29]
  GI50: 1.75 µM (inactive)
[30]
  GI50: 2.91 µM (inactive)
[31]
  GI50: 1.31 µM (inactive)
[32]
  GI50: 1.94 µM (inactive)
[57]
  GI50: 1.57 µM (inactive)
[33]
  GI50: 1.35 µM (inactive)
[34]
  GI50: 1.53 µM (inactive)
[35]
  GI50: 2.49 µM (inactive)
[36]
  GI50: 0.439 µM (active)
[37]
  GI50: 2.84 µM (inactive)
[38]
  GI50: 1.41 µM (inactive)
[58]
  GI50: 2.3 µM (inactive)
[39]
  GI50: 2.14 µM (inactive)
[59]
  GI50: 0.413 µM (active)
[40]
  GI50: 1.93 µM (inactive)
[41]
  GI50: 2.29 µM (inactive)
[42]
  GI50: 3 µM (inactive)
[43]
  GI50: 1.79 µM (inactive)
[44]
  GI50: 1.36 µM (inactive)
[45]
  GI50: 1.67 µM (inactive)
[46]
  GI50: 1.88 µM (inactive)
[47]
  GI50: 15.8 µM (inactive)
[48]
  GI50: 0.889 µM (active)
[49]
  GI50: 1.63 µM (inactive)
[50]
  GI50: 1.89 µM (inactive)
[51]
  GI50: 2.81 µM (inactive)
[52]
  GI50: 1.66 µM (inactive)
[53]
  GI50: 1.74 µM (inactive)
[54]
  GI50: 1.94 µM (inactive)

## CCCC/N=C(/c1ccccc1)N1CCOCC1
[1]
  GI50: > 100 µM (inactive)
[2]
  GI50: > 100 µM (inactive)
[3]
  GI50: > 100 µM (inactive)
[4]
  GI50: > 100 µM (inactive)
[5]
  GI50: > 100 µM (inactive)
[6]
  GI50: > 100 µM (inactive)
[7]
  GI50: 87.1 µM (inactive)
[8]
  GI50: > 100 µM (inactive)
[9]
  GI50: > 100 µM (inactive)
[10]
  GI50: > 100 µM (inactive)
[11]
  GI50: > 100 µM (inactive)
[12]
  GI50: > 100 µM
[13]
  GI50: > 100 µM (inactive)
[14]
  GI50: > 100 µM (inactive)
[15]
  GI50: > 100 µM (inactive)
[16]
  GI50: > 100 µM (inactive)
[17]
  GI50: > 100 µM (inactive)
[18]
  GI50: > 100 µM (inactive)
[20]
  GI50: > 100 µM (inactive)
[21]
  GI50: > 100 µM (inactive)
[24]
  GI50: > 100 µM (inactive)
[25]
  GI50: > 100 µM (inactive)
[26]
  GI50: > 100 µM (inactive)
[27]
  GI50: > 100 µM (inactive)
[28]
  GI50: > 100 µM (inactive)
[29]
  GI50: > 100 µM (inactive)
[30]
  GI50: > 100 µM (inactive)
[31]
  GI50: > 100 µM (inactive)
[32]
  GI50: > 100 µM (inactive)
[57]
  GI50: > 100 µM (inactive)
[34]
  GI50: > 100 µM (inactive)
[35]
  GI50: 57.9 µM (inactive)
[36]
  GI50: > 100 µM (inactive)
[37]
  GI50: > 100 µM (inactive)
[38]
  GI50: > 100 µM (inactive)
[58]
  GI50: > 100 µM (inactive)
[39]
  GI50: > 100 µM (inactive)
[59]
  GI50: > 100 µM (inactive)
[40]
  GI50: > 100 µM (inactive)
[41]
  GI50: > 100 µM (inactive)
[42]
  GI50: > 100 µM (inactive)
[43]
  GI50: > 100 µM (inactive)
[44]
  GI50: > 100 µM (inactive)
[45]
  GI50: > 100 µM (inactive)
[46]
  GI50: > 100 µM (inactive)
[47]
  GI50: > 100 µM (inactive)
[48]
  GI50: 1.25 µM (inactive)
[49]
  GI50: 97.7 µM (inactive)
[50]
  GI50: > 100 µM (inactive)
[51]
  GI50: > 100 µM (inactive)
[52]
  GI50: > 100 µM (inactive)
[53]
  GI50: > 100 µM (inactive)
[54]
  GI50: > 100 µM (inactive)
